One assay concerns PAIGB protein. Nature of the assay: Immunohistochemistry of PAIGB protein in mouse calvariae. Type of assay: in vivo. The settings on record: Swiss Webster mice, 20 μg/kg/day sc onto the calvariae, 18 days. As to the method: Immunohistochemical analysis of PAIGB protein express can be assessed in various animal species such as human bone biopsy samples, mouse, rat, or dog bone samples etc., that have been treated with potential bone anabolic agents. For example, Swiss Webster mice were treated with 20 μg/kg/day PTH 1-34 subcutaneously onto the calvariae for 18 days. Following the 18 days, the calvariae samples were harvested and PAIGB protein expression was analyzed using the PAIGB polyclonal antibody (FIG. 20, FIG. 21 and FIG. 22).
The mouse calvariae was gently dissected and fixed in 10% phosphate-buffered formalin. After fixation, the calvariae were decalcified in TBD-2 decalcifying agent (SHANDON, Cat. # 6764003) for 7-8 hrs, dehydrated in graded alcohol, embedded in paraffin. The calvariae was bisected perpendicular to the sagittal suture through the central portion of the parietal bones parallel to the lambdoidal and coronal sutures and embedded in paraffin. Four to six 5 μm-thick representative, non-consecutive step sections were cut. Various sections were stained with hematoxylin and eosin (H&E) (Sigma, St. Louis, Mo.) and adjacent section were used for immunohistochemistry. The bone samples were then deparafinized in xylene and rehydrated in graded ethanol and PBS. […] The peroxidase was detected using peroxidase substrate kit DAB (SK-4100, Vector Laboratories).

In assay [1] the test system is PAIGB expression in ROS 17/2.8 cells. The experiment in a line: Real time PCR of PAIGB expression in ROS 17/2.8 cells. Format: cell-based, rat. The settings on record: 10 nM. An excerpt:
Applicants performed multiplex real time PCR (TaqMan) analysis on previously DNAsed samples using gene specific probe and primers and 18S ribosomal RNA probe and primer sets purchased from Applied Biosystem. (Foster City, Calif.) The samples were DNAsed according to the protocol provided by Ambion (DNA-free kit). TaqMan probe and primers for PAIGB was identify using Primer Express computer program. The sequence for rat PAIGB TaqMan probe was 6FAM-5′[…] (SEQ ID NO: 16) forward and reverse primers were 5′[…] 3′ (SEQ ID NO:17) and 5′ […] 3′ (SEQ ID NO:18) respectively. The final concentrations for probes were 500 nM and 40 nM for PAIGB and 18S ribosomal RNA or GAPDH respectively. The concentrations of the primers were 500 nM for PAIGB forward and reversed primers while 18S primers were 10 and 20 nM for forward and reversed primer respectively or 40 nM for GAPDH primers. Standards for rat samples were made from rat tibia or brain RNA in the range of 250 ng to 0.1 ng, while standards for mouse specific TaqMan were made from mouse brain RNA and human standards from human brain RNA (Clonetech, Palo Alto, Calif.) spanning the same range of concentration. Primers and probes for mouse PAIGB were: forward 5′ […] 3′ (SEQ ID NO:19), reverse, 5′ […] (SEQ ID NO:21). Primers and probes for human PAIGB were: forward 5′ […] 3′ (SEQ ID NO:22), reverse 5′ […] 3′(SEQ ID NO: 24). The Taq-man analysis was done using ABI 7700 Sequence Detector under following conditions: 30 min at 48° C., 10 min at 95° C. and 40 cycles of 15 sec at 95° C. and 60 sec at 60° C. Analysis of real-time PCR analysis was performed using (Sequence Detector, Macintosh) program.
Five cell types were primarily used in our experiments. Rat osteoblast cell line (ROS 17/2.8) that expresses moderate levels of PTH receptor 1 (Rodan et al, Rev. Eukaryotic Gene Expression 1:85-98, 1991) were used to perform in vitro experiments. ROS cells were maintained under standard cell culture conditions: 10% heat inactivated FBS in Dulbecco's Modified Eagle Medium with Nutrient Mixture F-12 (DMEM/F12) media, 1% Penicillin/Streptomycin and 1% Glutamax. Mouse cell line C3H10T½ (ATCC# CCL226) as a representative of mouse osteoprogenitor cell line were maintained in Eagles Minimal Essential Media (EMEM) with the addition of 10% heat inactivated FBS and 1% Penicillin/Streptomycin and 1% Glutamax. UMR106 rat osteoblastic cells (ATCC# CRL1661) were cultured in Dulbecco's Modified Eagle Medium (DMEM) supplemented with 10% heat inactivated FBS, 1% Penicillin/Streptomycin and 1% Glutamax. The U2OS human osteoblastic cells (ATCC# HTB96) were cultured in McCoy's 5A Medium Modified supplemented with 10% FBS, 1% Penicillin/Streptomycin and 1% Glutamax. The human HOB-03-CE6 cell line (Bodine, V. N. P., et. al., J. Cell. Biochem., 65: 368-387,1997) was maintained in phenol red free DMEM/F12 media supplemented with 10% heat inactivated FBS and 1% Penicillin/Streptomycin and 1% Glutamax.
ROS 17/2.8 rat osteoblast cell line that express PTH receptor (˜80000 receptors/cell) were treated with increased doses of PTH: 1 nM, 10 nM, 100 nM and 1000 nM. Real time PCR using rat specific Taq-man probes and primers were used to examine the changes in PAIGB expression with PTH treatment.
Time course of PTH induction of PAIGB expression was examined. ROS 17/2.8_cells were treated with 10 nM PTH and RNA was harvested at 1, 2, 4, 6, 8 and 24 hours post treatment.

Take human PTH (1-34): in the assay on PAIGB protein, the “PAIGB protein expression in calvariae (immunohistochemistry)” value is reported as “induced”. Besides, the “PAIGB message with increasing concentrations” value in assay [1] (1 nM, 100 nM and 1000 nM) is listed as “dose-dependent increase”. For the same substance, the “maximal increase of PAIGB expression” value in assay [1] (4 hours time point) is 2.66+/−0.3. In addition, the “effect on PAIGB expression 8 hours post treatment” value in assay [1] (8 hours) is “completely abolished”. The “induction of PAIGB expression” value in assay [1] (data not shown) is reported as 6 fold.
